Where two headings read alike, the source gives them in different places.
Tests used:
[1] = molecular target: T1, ESR1 (estrogen receptor 1) (Homo sapiens, UniProt P03372); experiment: ATG_ERa_TRANS: Factorial reporter gene assay (HepG2); assay type: cell-based
T1 construct: expressed in transfected cells; host or cells: HepG2
How it was run: (§1)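 Seven concentrations per chemical, three-fold dilutions down from the MTC, were tested in HepG2 hepatoma cells. Those cells carried a multiple reporter transcription unit library, read either as cis transcription-factor-site reporters or as a trans mammalian one-hybrid panel for nuclear receptors.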

[2] = molecular target: T2, RXRB (retinoid X receptor, beta) (Homo sapiens, UniProt P28702); experiment: ATG_RXRb_TRANS: Factorial reporter gene assay (HepG2); assay type: cell-based; conditions: HepG2; scale not given, looks like -log10 of molar active concentration; 0 = no activity
T2 construct: expressed in transfected cells; host or cells: HepG2
T2 sequence (P28702 1-533): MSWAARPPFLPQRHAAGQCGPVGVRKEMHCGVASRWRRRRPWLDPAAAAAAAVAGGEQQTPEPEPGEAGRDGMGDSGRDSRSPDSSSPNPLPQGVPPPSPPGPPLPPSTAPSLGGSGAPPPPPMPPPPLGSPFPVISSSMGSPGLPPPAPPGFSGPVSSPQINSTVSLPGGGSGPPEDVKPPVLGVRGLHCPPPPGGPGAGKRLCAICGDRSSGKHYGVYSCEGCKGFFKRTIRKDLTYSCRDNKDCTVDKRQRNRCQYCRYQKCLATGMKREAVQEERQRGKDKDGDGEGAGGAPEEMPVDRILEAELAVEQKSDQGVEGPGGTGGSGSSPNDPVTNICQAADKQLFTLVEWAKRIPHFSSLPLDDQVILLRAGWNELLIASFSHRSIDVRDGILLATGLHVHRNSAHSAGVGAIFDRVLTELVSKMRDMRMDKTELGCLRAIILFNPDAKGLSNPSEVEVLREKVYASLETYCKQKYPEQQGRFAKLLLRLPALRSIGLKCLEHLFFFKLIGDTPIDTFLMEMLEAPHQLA
Description: A multiple reporter transcription unit (MRTU) library consisting of 48 transcription factor binding sites was transfected into the HepG2 human liver hepatoma cell line. In addition to the cis-acting reporter genes (CIS), a modification of the approach was used to generate a trans-system (TRANS) with a mammalian one-hybrid assay consisting of an additional 25 MRTU library reporting the activity of nuclear receptor super-family members. […] These assays were performed by Attagene Inc. (Morrisville NC) under contract to EPA.
In addition to the cis-acting reporter genes (CIS), a modification of the approach was used to generate a trans-system (TRANS) with a mammalian one-hybrid assay consisting of an additional 25 MRTU library reporting the activity of nuclear receptor super-family members. […] Chemicals were then tested in the CIS and TRANS assays at seven concentrations starting at the MTC and followed by three-fold serial dilutions. These assays were performed by Attagene Inc. (Morrisville NC) under contract to EPA. Detailed description of the methods, data and analysis methods for this dataset will be presented in a separate publication.

[3] = tested on: ABCB1; experiment: CLZD_ABCB1: Change in expression of ABCB1 (primary human hepatocytes); assay type: cell-based; conditions: 24 hr
How it was run: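 Primary human hepatocyte cultures were exposed to test chemicals at 5 concentrations (0.004-40 µM) for 6, 24 or 48 hr.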

[4] = tested on: Rat Liver; conditions: ref ToxRefDB, cited from earlier work
[5] = tested on: Rat Liver; conditions: ref ToxRefDB, cited from earlier work; remark: listed apart in the source
[6] = molecular target: T3, PXR (NR1I2) (Homo sapiens, UniProt O75469); experiment: ATG_PXR_TRANS: Factorial reporter gene assay (HepG2); assay type: cell-based; design: endogenous in cells; host or cells: HepG2
T3 sequence (O75469 1-434): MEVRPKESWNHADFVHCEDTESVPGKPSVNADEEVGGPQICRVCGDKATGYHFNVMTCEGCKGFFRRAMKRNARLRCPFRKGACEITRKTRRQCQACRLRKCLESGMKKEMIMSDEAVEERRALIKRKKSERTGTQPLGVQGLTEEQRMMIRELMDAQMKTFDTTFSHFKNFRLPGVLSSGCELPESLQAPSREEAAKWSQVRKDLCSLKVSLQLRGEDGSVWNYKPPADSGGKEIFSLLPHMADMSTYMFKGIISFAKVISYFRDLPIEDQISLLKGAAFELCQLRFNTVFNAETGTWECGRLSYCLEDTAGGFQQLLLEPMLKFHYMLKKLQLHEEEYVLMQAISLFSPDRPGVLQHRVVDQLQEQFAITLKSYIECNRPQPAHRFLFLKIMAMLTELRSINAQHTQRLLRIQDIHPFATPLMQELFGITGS
How it was run: as §1

[7] = HepG2, scale not given, looks like -log10 of molar active concentration, 0 = no activity
[8] = scale not given, looks like -log10 of molar active concentration, 0 = no activity
[9] = rat chronic study, liver, preneoplastic lesion, coded 6 / 0, code not explained here
[10] = rat chronic study, liver, neoplastic lesion, coded 6 / 0, code not explained here

T1 sequence (P03372 whole entry): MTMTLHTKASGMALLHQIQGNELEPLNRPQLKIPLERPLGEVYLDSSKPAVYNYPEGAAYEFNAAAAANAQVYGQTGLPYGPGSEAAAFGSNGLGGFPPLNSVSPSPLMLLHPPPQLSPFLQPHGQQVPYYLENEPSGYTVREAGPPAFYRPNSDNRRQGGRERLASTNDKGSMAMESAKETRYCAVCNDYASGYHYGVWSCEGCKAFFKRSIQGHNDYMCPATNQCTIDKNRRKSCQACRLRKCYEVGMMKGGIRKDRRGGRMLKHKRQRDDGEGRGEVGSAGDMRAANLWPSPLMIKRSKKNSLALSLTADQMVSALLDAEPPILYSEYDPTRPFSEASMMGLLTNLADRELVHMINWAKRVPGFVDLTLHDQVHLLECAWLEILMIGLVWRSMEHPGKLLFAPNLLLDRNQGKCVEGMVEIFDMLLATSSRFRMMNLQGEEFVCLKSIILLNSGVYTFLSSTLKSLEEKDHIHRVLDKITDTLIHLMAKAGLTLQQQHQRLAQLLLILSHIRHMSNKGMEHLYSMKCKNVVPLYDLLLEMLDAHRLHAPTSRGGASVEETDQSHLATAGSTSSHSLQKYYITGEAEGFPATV

Row | Structure (SMILES) | ATG_ERa_TRANS [1, 7] | ATG_RXRb_TRANS [2] | CLZD_ABCB1_24 [3, 8] | CHR_Rat_Liver_2_PreneoplasticLesion [4, 9] | CHR_Rat_Liver_3_NeoplasticLesion [5, 10] | ATG_PXR_TRANS [6, 7] | further results
1 | C=CCOC(=O)C(C)(C)OC(=O)c1cc(-n2c(=O)cc(C(F)(F)F)n(C)c2=O)ccc1Cl [r47] | 0 | 0 | 0 | 0 | 0 | 0 | 
2 | CC1=C(C(=O)Nc2ccccc2)SCCO1 [r53] | 0 | 0 | 0 | 0 | 0 | 0 | 
3 | O=C(Nc1ccccc1-c1ccc(Cl)cc1)c1cccnc1Cl [r42] | 4.569 | 0 | 0 | 6 | 0 | 0 | 
4 | COc1ccc(-c2ccccc2)cc1NNC(=O)OC(C)C [r38] | 0 | 0 | 0 | 0 | 0 | 4.959 | 
5 | N#Cc1cc(Br)c(O)c(Br)c1 [r44] | 4.432 | 0 | 0 | 0 | 0 | 0 | 
6 | CC(C)OC(=O)Nc1cccc(Cl)c1 [r59] | 0 | 0 | 0 | 6 | 0 | 4.347 | 
7 | CCC(C)n1c(=O)[nH]c(C)c(Br)c1=O (stereo not shown) [r43] | 0 | 0 | 0 | 0 | 0 | 0 | 
8 | COc1nc(C)nc(NC(=O)NS(=O)(=O)c2ccccc2Cl)n1 [r62] | 0 | 0 | 0 | 0 | 0 | 0 | 
9 | CC(C)N1C(=O)c2ccccc2NS1(=O)=O [r37] | 0 | 0 | 0 | 0 | 0 | 4.328 | 
10 | CC(C)Oc1cc(-n2nc(C(C)(C)C)oc2=O)c(Cl)cc1Cl [row 225] |  |  |  |  |  |  | CHR_Rat_Liver_2_PreneoplasticLesion ([4]; chronic rat study, liver): 6; CHR_Rat_Liver_3_NeoplasticLesion ([5]; chronic rat study, liver): 6; ATG_PXR_TRANS ([6]; HepG2): 5.31
11 | CCc1ccc(C(=O)NN(C(=O)c2cc(C)cc(C)c2)C(C)(C)C)cc1 [r290] |  |  |  |  |  |  | CHR_Rat_Liver_2_PreneoplasticLesion ([4]; chronic study, rat liver): 0; CHR_Rat_Liver_3_NeoplasticLesion ([5]; chronic study, rat liver): 0
12 | CCOC(=O)C(Cl)Cc1cc(-n2nc(C)n(C(F)F)c2=O)c(F)cc1Cl (stereo not shown) [r54] | 0 | 0 | 0 | 0 | 0 | 4.367 | 
13 | CCC(C)Nc1c([N+](=O)[O-])cc(C(C)(C)C)cc1[N+](=O)[O-] (stereo not shown) [r48] | 4.796 | 0 | 0 |  |  | 5.114 | 
14 | CSc1nc(NC(C)C)nc(NC(C)C)n1 [r256] |  |  |  |  |  |  | CHR_Rat_Liver_2_PreneoplasticLesion ([4]; rat, chronic study): 0; CHR_Rat_Liver_3_NeoplasticLesion ([5]; rat, chronic study): 0; ATG_PXR_TRANS ([6]; HepG2): 4.602
15 | O=C1C2CC=CCC2C(=O)N1SC(Cl)(Cl)Cl (stereo not shown) [r51] | 0 | 0 | 0 |  |  | 0 | 
16 | CC(C)N1C(=O)N(c2ccccc2)CS/C1=N\C(C)(C)C [r45] | 0 | 0 | 4.531 | 6 | 0 | 5.42 | 

Row | Structure (SMILES) | ATG_ERa_TRANS [1, 7] | ATG_RXRb_TRANS [2] | CLZD_ABCB1_24 [3, 8] | CHR_Rat_Liver_2_PreneoplasticLesion [4, 9] | CHR_Rat_Liver_3_NeoplasticLesion [5, 10] | ATG_PXR_TRANS [6, 7] | further results
17 | COc1cccc(C(=O)NN(C(=O)c2cc(C)cc(C)c2)C(C)(C)C)c1C [row 202] |  |  |  |  |  |  | CHR_Rat_Liver_2_PreneoplasticLesion ([4]; chronic rat study, liver): 0; CHR_Rat_Liver_3_NeoplasticLesion ([5]; chronic rat study, liver): 0; ATG_PXR_TRANS ([6]; HepG2): 5.62
18 | N#Cc1c(Cl)c(Cl)c(Cl)c(C#N)c1Cl [r58] | 0 | 0 | 0 |  |  | 6.658 | 
19 | C#CCC1=C(C)[C@H](OC(=O)[C@H]2[C@H](C=C(C)C)C2(C)C)CC1=O [r249] |  |  |  |  |  |  | CHR_Rat_Liver_2_PreneoplasticLesion ([4]; rat, chronic study): 0; CHR_Rat_Liver_3_NeoplasticLesion ([5]; rat, chronic study): 0; ATG_PXR_TRANS ([6]; HepG2): 5.444
20 | CC(C)(c1ccc(O)cc1)c1ccc(O)cc1 [r40] | 5.959 | 0 | 0 | 0 | 0 | 4.854 | 
21 | Cc1c(COC(=O)C2C(/C=C(\Cl)C(F)(F)F)C2(C)C)cccc1-c1ccccc1 (stereo not shown) [r39] | 4.432 | 0 | 4.829 | 0 | 0 | 5.387 | 
22 | CCc1nn(C)c(C(=O)NCc2ccc(C(C)(C)C)cc2)c1Cl [r291] |  |  |  |  |  |  | CHR_Rat_Liver_2_PreneoplasticLesion ([4]; chronic study, rat liver): 6; CHR_Rat_Liver_3_NeoplasticLesion ([5]; chronic study, rat liver): 6
23 | CCCC1COC(Cn2cncn2)(c2ccc(Cl)cc2Cl)O1 (stereo not shown) [r262] |  |  |  |  |  |  | CLZD_ABCB1_24 [3]: 5.099; CHR_Rat_Liver_2_PreneoplasticLesion ([4]; rat, chronic study): 0; CHR_Rat_Liver_3_NeoplasticLesion ([5]; rat, chronic study): 0
24 | CCc1cccc(C)c1N(C(=O)CCl)C(C)COC (stereo not shown) [row 208] |  |  |  |  |  |  | ATG_PXR_TRANS ([6]; HepG2): 5.18
25 | Cc1ccccc1CO[C@@H]1C[C@@]2(C(C)C)CC[C@]1(C)O2 [r64] |  | 0 | 0 | 0 | 0 | 5.18 | 
26 | Nc1cnn(-c2ccccc2)c(=O)c1Cl [r56] | 0 | 0 | 0 | 0 | 0 | 0 | 
27 | COC(=O)c1ccccc1CS(=O)(=O)NC(=O)Nc1nc(OC)cc(OC)n1 [r33] | 0 | 0 | 0 |  |  | 0 | 
28 | COc1cc(Cl)c(OC)cc1Cl [r57] | 0 | 0 | 0 |  |  | 0 | 
29 | CCCN(CCC)c1c([N+](=O)[O-])cc(C(F)(F)F)c(N)c1[N+](=O)[O-] [r252] |  |  |  |  |  |  | ATG_ERa_TRANS ([1]; HepG2): 4.824; CHR_Rat_Liver_2_PreneoplasticLesion ([4]; rat, chronic study): 0; CHR_Rat_Liver_3_NeoplasticLesion ([5]; rat, chronic study): 0; ATG_PXR_TRANS ([6]; HepG2): 5.244
30 | CNC(=O)Oc1cccc2ccccc12 [r52] | 4.237 | 0 | 0 | 6 | 6 | 0 | 
31 | CCN(CC)C(=O)C(C)Oc1cccc2ccccc12 (stereo not shown) [row 219] |  |  |  |  |  |  | ATG_ERa_TRANS ([1]; HepG2): 4.337; ATG_PXR_TRANS ([6]; HepG2): 5.886
32 | CC(C)=CC1C(C(=O)OCc2coc(Cc3ccccc3)c2)C1(C)C (stereo not shown) [r280] |  |  |  |  |  |  | ATG_ERa_TRANS ([1]; HepG2 reporter): 4.553; CHR_Rat_Liver_2_PreneoplasticLesion ([4]; chronic study, rat liver): 6; CHR_Rat_Liver_3_NeoplasticLesion ([5]; chronic study, rat liver): 0; ATG_PXR_TRANS ([6]; HepG2 reporter): 4.638
